In paper PMC3375010, “The TRPV5/6 calcium channels contain multiple calmodulin binding sites with differential binding properties” (Journal of Structural and Functional Genomics, 2012):
Entries after “also recorded” stand apart in the source; their conditions may differ. Values belong to the substance of their own block, whether it stands above or below them.

Tests used:
CaM (calmodulin) [1] = biological target: T1, CaM (calmodulin) (Xenopus laevis, UniProt P0DP33); assay: 15N-1H-HSQC NMR titration of 15N-labelled CaM with peptide (with 1D 15N-filtered NMR); type: binding, Xenopus laevis (identical to mammalian); details: 35°C; for CaM NMR line broadening: CaM:peptide 1:1.5 molar ratio, H2O with 10 mM 2-mercaptoethanol; for NMR exchange regime of CaM-peptide complex: 15N-1H-HSQC, V5p4, V5p5: CaM buffer pH 7.0, V5p2, V5p2n: H2O with 10 mM 2-mercaptoethanol; for CaM domains involved in binding (overall): V6p1: first and second event, pH 7.0, V5p3: 1:1, pH 5.0; for CaM binding affinity (words, from NMR): 1:0–1:3
T1 construct: made in house; host or cells: E. coli AR58 (pTNcoI2 plasmid)
Protocol: (§1) For the titration by synthetic peptides, ^15N-labeled CaM samples with concentration 0.3–0.7 mM were used. CaM and peptides were dissolved in either KCl 50 mM, CaCl2 10 mM, Tris 20 mM pH 7.0 (V5p1s, V6p1, V5p4, V5p5), or 10 mM CaCl2, 10 mM ammonium acetate buffer pH 5.0 (V5p3 and V6p3), or MilliQ water with 10 mM 2-mercaptoethanol (V5p2 and V5p2n).
(§2) The binding of target peptides to CaM was monitored by 2D ^15N-^1H-HSQC spectra. The combination of 1D ^15N-filtered and 1D ^15N-^1H-HSQC experiments was used to assess the ratio of bound and non-bound peptides. ^15N-T1rho experiments were used to estimate the transverse relaxation rates of the CaM resonances during the titration. For sequential assignment of CaM 3D HNCACB and CBCA(CO)NH experiments were performed.
All spectra were recorded at 308 K on Varian Inova 800 MHz or Bruker Avance III 600 MHz spectrometers, each equipped with a cryogenic probe.
All NMR spectra were processed using the NMRpipe suite and analyzed by the program CcpNmr Analysis.

CaM (calmodulin) [2] = biological target: T1, CaM (calmodulin); assay: Tryptophan fluorescence of the peptide upon titration by CaM; type: binding, Xenopus laevis (identical to mammalian); details: room temperature; for emission maximum: V5p2, W593; for emission maximum without CaM (start of shift): V6p1 W695: CaM buffer pH 7.0, V5p2 W593: H2O with 2-mercaptoethanol pH 7.0 (Table 1), before CaM addition; for shift of emission maximum upon CaM addition: emission 295–405 nm, peptide:CaM 1:0–1:2
Protocol: Fluorescence measurements were performed using a Varian Cary Eclipse fluorescence spectrophotometer (Agilent Technologies, USA), with emission and excitation slit width set to 5 nm. Tryptophan excitation wavelength was set to 282 nm and emission spectra were recorded in the range 295–405 nm. Each spectrum was recorded three times and averaged. Fluorescence intensity contribution from CaM and background intensity from buffer and cuvettes were subtracted for each spectrum. The recorded emission intensities were corrected for dilution effects. All measurements were carried out at room temperature. CaM and peptides stocks were prepared in 50 mM KCl, 10 mM CaCl2 20 mM Tris pH 7.0 buffer. […] For each titration point, the samples were kept at room temperature for 30 min prior to measurements to ensure that the equilibrium was reached.

CaM (calmodulin) [3] = biological target: T1, CaM (calmodulin); assay: 15N-T1rho relaxation of CaM (oligomeric state); set-up: species or system Xenopus laevis (identical to mammalian); details: CaM:V5p2 1:1.5 complex
Protocol: as §2
At CaM:V5p2 1:0.75 molar ratio, a significant number of the CaM peaks are doubled and for some peaks substantial line broadening is observed. […] Using the envelope of the well-dispersed, upfield-shifted amide resonances, we obtained T1rho values of ~100 ms for free Ca^2+/CaM which decreased to ~80 ms for CaM in the 1:1.5 complex.

[4] = Peptide solubility / aggregation; type: physicochemical; details: for solubility: V5p2: at concentrations desired for NMR, V5p3, V6p3: 10 mM CaCl2, 10 mM ammonium acetate pH 5.0; for aggregation / precipitation: aqueous buffer versus water, 2-mercaptoethanol 10 mM tested
Protocol: as §1
^15N-^1H-HSQC spectra of the complexes of CaM with V5p2 at molar ratios 1:0 (black), 1:0.75 (red) and 1:1.5 (blue) are presented in Fig. 5a.
The binding patterns observed for CaM in the two complexes were also very similar (supplementary Fig. 4sC). Low pH (5.0) might influence CaM-peptide interactions but we have not studied the effect of pH in details. As both peptides contain neither tryptophan, nor tyrosine residues, fluorescence measurements were not possible using the native peptides.

CaM (calmodulin) [5] = biological target: T1, CaM (calmodulin); assay: Isothermal titration calorimetry of CaM with peptide; type: binding, Xenopus laevis (identical to mammalian); details: for K2 (macroscopic binding constant, second event) / K1 (macroscopic binding constant, first event): CaM 15–20 μM in cell; for K1 (macroscopic binding constant, first event): measured at least three times; for ΔS1 / ΔS2: pH 7.0
Description: Peptides corresponding to the amino acid residues 133–154, 310–330, 401–428, 591–612, 696–712 and 696–729 of human TRPV5 and 401–428 and 690–716 of human TRPV6 (cf. Table 1) were purchased from Peptides & elephants GmbH (Potsdam, Germany) and GenicBio Limited (Shanghai, China). All peptides were purified by HPLC (>95% purity) and analyzed by mass-spectrometry. Prior to all experiments, to remove residual TFA, the peptides were dialyzed against an appropriate buffer (dialysis tubing Spectra/Por® 7 with 1 K MWCO; Spectrum Labs, USA).
Expression was induced by a temperature shift from 30 to 42°C and 3–4 h after induction cells were harvested and lysed. Calmodulin was purified by weak anion exchange (DEAE, GE Lifesciences) and affinity chromatography (Phenylsepharose, GE Lifesciences). Purified protein was dialyzed against 1/100 of KCl 50 mM, CaCl2 10 mM, Tris 20 mM pH 7.0, freeze-dried and stored at −20°C. Unless specified differently, all chemicals were obtained from Sigma-Aldrich, USA). Uniformly ^13C and/or ^15N-labelled samples were produced by growing the cells in M9 minimal medium containing 4 g/L ^13C6-glucose and/or 1 g/L ^15N-ammonium chloride (Buchem BV, Apeldoorn, The Netherlands) as the sole source of carbon and/or nitrogen, respectively.
ITC samples were prepared by dissolving CaM and peptides in 50 mM KCl, 10 mM CaCl2, 20 mM Tris pH 7.0 buffer. The concentration of CaM in the cell was 15–20 μM, the concentration of peptides in the syringe exceeded the CaM concentration by 15–20 times. Protein concentrations were determined using a Nanodrop spectrophotometer ND-1000 (Isogen Life Science). ITC experiments were carried out using an ITC200 device (MicroCal Inc., Northampton, MA, USA). After thermal equilibration at 298 K, thirty-nine 1 μl serial injections were performed at 500 rpm stirring speed with an injection spacing of 4 min. To correct the experimental binding isotherm for background heat effects, we also titrated peptide into buffer. All measurements were performed at least three times to determine the optimal experimental conditions with respect to signal-to-noise ratio. In all cases, experiments were consistent and reproducible. ITC data analysis was performed using the Origin 7.0 software supplied by the manufacturer of the ITC. All data were analyzed with “one binding site model” and the “sequential binding site model” implemented in this software package.

CaM-Sepharose = details: ref S. Verkaart, private communication; cited from earlier work
Description: In our previous work we studied a long version of the C-terminal TRPV5 peptide 1 (V5p1, residues 696–729 in human TRPV5).

[6] = biological target: Calmodulin (Homo sapiens) (UniProt P0DP23); assay: fluorescence anisotropy; details: cited from earlier work
[7] = 15N-1H-HSQC titration, CaM buffer pH 7.0
[8] = association constant, sequential binding sites model, N fixed to 2, 50 mM KCl, 10 mM CaCl2, 20 mM Tris pH 7.0, 298 K
[9] = sequential binding sites model, N fixed to 2, 298 K

Substance: GLEI PDIFRVGASRYFGKTILGGPFHVI [V5p3, TM23-loop peptide, residues 401–428 of TRPV5, L401G]
CaM domains involved in binding (overall) (CaM (calmodulin) [1]): Residues of both CaM domains were involved in the binding process
solubility [4]: only soluble at pH 5.0

Substance: GSHRGWEILRQNTLGHL [V5p1s, short TRPV5 C-terminal peptide 1, residues 696–712 of human TRPV5, S696G]
K2 (macroscopic binding constant, second event) (CaM (calmodulin) [5]; [8]): 2.9 (±1.9) × 10^4 M^−1
K1 (macroscopic binding constant, first event) (CaM (calmodulin) [5]; [8]): 9.2 (±4.1) × 10^6 M^−1
ΔS1 (CaM (calmodulin) [5]; [9]): −95.3 cal mol^−1 deg^−1
ΔS2 (CaM (calmodulin) [5]; [9]): −64.1 cal mol^−1 deg^−1
CaM residues/domain involved in first binding event (CaM (calmodulin) [1]; 1:1 CaM:peptide, CaM buffer pH 7.0): C-domain of CaM
CaM residues/domain involved in second binding event (CaM (calmodulin) [1]; 1:2 CaM:peptide, CaM buffer pH 7.0): N-domain of CaM
number of distinct binding events (CaM (calmodulin) [1]; 15N-1H-HSQC at CaM:peptide 1:0, 1:1, 1:2, CaM buffer pH 7.0): two binding events
emission maximum λmax (CaM (calmodulin) [2]; W701, peptide:CaM ratio 1:2, 50 mM KCl, 10 mM CaCl2, 20 mM Tris pH 7.0, excitation 282 nm): ~ 324 nm
shift of emission maximum upon CaM addition (CaM (calmodulin) [2]; excitation 282 nm): clear blue-shift of the emission maximum
effect of C-terminal deletion of 17 amino acids on TRPV5 binding to CaM-Sepharose (CaM-Sepharose): did not affect TRPV5 binding to CaM-Sepharose

Substance: GVEVPDIFRMGVTRFFGQTILGGPFHVL [V6p3, TM23-loop peptide, residues 401–428 of TRPV6, L401G]
solubility [4]: only soluble at pH 5.0

Substance: TRPV5 587-616 (from UniProt Q9NQA5)
Kd [6]: 310 nM

Continued, in another order:

emission maximum (CaM (calmodulin) [2]; CaM:peptide 0.75:1 molar ratio): 337 nm
emission maximum (CaM (calmodulin) [2]; further addition of CaM (beyond 0.75:1)): 312 nm
emission maximum without CaM (start of shift) (CaM (calmodulin) [2]; excitation 282 nm): 350 nm
shift of emission maximum upon CaM addition (CaM (calmodulin) [2]; excitation 282 nm): blue-shift in emission maximum
oligomeric state of CaM in complex (CaM (calmodulin) [3]; from T1rho): (predominantly) monomeric state of CaM
15N-T1rho of CaM (CaM (calmodulin) [3]; upfield-shifted amide resonances, H2O with 10 mM 2-mercaptoethanol): ~ 80 ms
Substance: ELWRAQVVATTVMLERKLPRCL [V5p2, C-terminal peptide 2, residues 591–612 of human TRPV5]
CaM NMR line broadening (CaM (calmodulin) [1]): many peaks are significantly broadened, some even beyond detection; also recorded: dramatic line broadening in the CaM NMR spectra
solubility [4]: only soluble in H2O; also recorded: limited solubility; also recorded: soluble in water
aggregation / precipitation [4]: in any buffer other than water precipitate was formed; also recorded: tends to aggregate in aqueous buffer solutions

CaM NMR line broadening (CaM (calmodulin) [1]): a significant loss of signal is observed
Substance: ELWRAQVVATTVMLERKLPRSL [V5p2n, V5p2 peptide featuring a C611S mutation]
NMR exchange regime of CaM-peptide complex (CaM (calmodulin) [1]): an intermediate exchange regime is retained
aggregation / precipitation [4]: Neither of these two conditions appears to alter the observed behavior

NMR exchange regime of CaM-peptide complex (CaM (calmodulin) [1]): fast exchange on the NMR timescale
shift of emission maximum upon CaM addition (CaM (calmodulin) [2]; excitation 282 nm): blue shift upon addition of calmodulin
Substance: GQTPVKELVSFKWNKYGRPYFS [V5p4, N-terminal peptide 4, residues 310–330 of human TRPV5, C330S]
binding process inferred from curved trajectory of resonances (CaM (calmodulin) [1]; [7]): multiple processes take place during V5p4 binding to CaM
CaM binding affinity (words, from NMR) (CaM (calmodulin) [1]; [7]): relatively weak affinity; also recorded: weak but specific binding to CaM

K1 (CaM (calmodulin) [5]; association constant, one binding site model, N allowed to vary, 50 mM KCl, 10 mM CaCl2, 20 mM Tris pH 7.0, 298 K): 1.3 (±0.3) × 10^7 M^−1
K2 (macroscopic binding constant, second event) (CaM (calmodulin) [5]; [8]): 5.2 (±1.5) × 10^6 M^−1
K1 (macroscopic binding constant, first event) (CaM (calmodulin) [5]; [8]): 2.2 (±1.7) × 10^6 M^−1
ΔS1 (CaM (calmodulin) [5]; one binding site model, N allowed to vary, 298 K): −27.7 cal mol^−1 deg^−1
ΔS1 (CaM (calmodulin) [5]; [9]): −29.6 cal mol^−1 deg^−1
ΔS2 (CaM (calmodulin) [5]; [9]): −33.0 cal mol^−1 deg^−1
emission maximum upon addition of CaM (CaM (calmodulin) [2]; V6p1, W695, CaM titration up to peptide:CaM 1:2, CaM buffer pH 7.0): 324 nm
emission maximum without CaM (start of shift) (CaM (calmodulin) [2]; excitation 282 nm): 358 nm
shift of emission maximum upon CaM addition (CaM (calmodulin) [2]; excitation 282 nm): blue-shift in emission maximum
Substance: GSSANWERLRQGTLRRDLRGIINRGLE [V6p1, TRPV6 C-terminal peptide 1, residues 690–716 of human TRPV6, R690G]
comparison of the affinities of the two binding events (CaM (calmodulin) [5]; K1 versus K2, sequential binding sites model): indistinguishable macroscopic binding constants; also recorded: nearly identical affinities
CaM domains involved in binding (overall) (CaM (calmodulin) [1]): residues from both domains of CaM are involved in the first and the second binding events; also recorded: involves both domains of CaM to a similar extent

NMR exchange regime of CaM-peptide complex (CaM (calmodulin) [1]): fast exchange on the NMR timescale
Substance: VRALLTRRASVSARATGTAFRR [V5p5, N-terminal peptide 5, residues 133–154 of human TRPV5]
CaM binding affinity (words, from NMR) (CaM (calmodulin) [1]; [7]): relatively weak affinity; also recorded: weak but specific binding to CaM
